≈ marks a conversion by molar mass, not a printed value. Where “and” joins values, the source holds several entries; their conditions need not be identical. Identical values can stand only once.
Key:
[1] = system: preformed biofilms of MRSA Mu50; test: Antibiofilm activity assay, viability by Resazurin reduction; format: cell-based, Staphylococcus aureus; conditions: preformed 24 h biofilms
Experimental: Sterile flat-bottom 96-well polystyrene plates were used for the assay. Some S. aureus colonies were picked from an MHA plate and resuspend in MHB + 10% glucose, and cell density was adjusted to 10^8 cells per mL. One hundred microlitres of cell suspension was added to each well, and the plate was incubated statically for 24 h to induce growth and maturation of biofilms. After 24 h, the wells were washed three times with PBS to remove planktonic cells, and compounds were added to the wells to check for antibiofilm activity. To check for inhibition of biofilm formation, compounds were added immediately after adding of cells to the wells in sublethal concentrations. Lysostaphin, moxifloxacin and DMSO served as positive and negative controls, respectively.
Viability was measured as described above utilizing the Resazurin reduction assay. Biofilm formation was measured using crystal violet staining as described elsewhere (Christensen et al. [1985]; Stepanovic et al. [2007]). Briefly, biofilms were washed three times with PBS and allowed to air dry before 0.1% (v/v) crystal violet solution (Waldeck GmbH & Co., Münster, Germany) was added to each well. The biofilms were stained for 15 min at room temperature (RT). […] Finally, 100 μL was transferred to a fresh 96-well plate to measure absorption at 600 nm with a plate reader.

human PBMNCs = system: human PBMNCs; set-up: method as in Mayer et al. [2019]; conditions: ref Mayer et al. [2019]; cited from earlier work
S. aureus = test: Generation of spontaneous resistant mutants; format: cell-based, Staphylococcus aureus; conditions: for fold increased MIC of mutants: after 15 passages in liquid media with increasing sublethal concentrations; for resistance frequency: one-step selection on solid media at 5-fold MIC
From the text: (§1) Spontaneous resistant mutants have been generated with 2-bromo-PP and 3-bromo-PP to further investigate the mechanism of antibacterial action and resistance. Since isolation of spontaneous resistant mutants in one step was not successful on solid media containing 2-bromo-PP or 3-bromo-PP (i.e. resistance frequency < 10^−7 at 5-fold MIC), enrichment was done by passaging bacteria daily in liquid media containing increasing sublethal concentrations of PPs. […] Moreover, we observed cross-resistance between PPs since 2-bromo-PP-resistant mutants were also resistant against 3-bromo-PP and vice versa (Fig. 4a; Table 2).

[2] = system: S. aureus mutant M3 (parental strain ATCC 25923); test: MIC of spontaneously resistant mutant; format: cell-based; conditions: Staphylococcus aureus, ATCC25923
Experimental: (§2) The minimal inhibitory concentration (MIC) has been determined according to the CSLI guidelines (CLSI [2012]). Briefly, in a sterile polystyrene U-bottom 96-well plate, a 2-fold serial dilution ranging from 100 to 0.78 μM of testing compounds has been prepared in 50 μL MHB. A freshly inoculated S. aureus culture was grown until OD600 nm of approx. 0.6 and diluted to 10^6 CFU/mL in MHB. Finally, 50 μL of the latter cell suspension was added to each well and then incubated statically for 18–24 h at 37 °C. MIC was determined using BacTiterGlo ATP assay (Promega, Madison, WI, USA) and Tecan Infinite F200 Pro (Tecan, Männedorf, Switzerland). Moxifloxacin and DMSO were used as positive and negative control, respectively. Sublethal concentrations of colistin (0.1 μM) were used in some experiments to increase the permeability of the gram-negative cell envelope for compound testing. For E. cloacae, a broth microdilution assay was performed using a serial 2-fold dilution in 96-well flat-bottomed plates (Falcon, BD Bioscience, Heidelberg) of both PPs in broth LB medium (Roth, Karlsruhe) at a concentration range of 50–0.024 μM.
as §1

[3] = system: S. aureus mutant M5 (parental strain Mu50); test: MIC of spontaneously resistant mutant; format: cell-based; conditions: Staphylococcus aureus
Experimental: as §2, §1

[4] = system: S. aureus mutant M2 (parental strain ATCC 25923); test: MIC of spontaneously resistant mutant; format: cell-based; conditions: Staphylococcus aureus, ATCC25923
Experimental: as §2, §1

[5] = system: S. aureus mutant M6 (parental strain Mu50); test: MIC of spontaneously resistant mutant; format: cell-based; conditions: Staphylococcus aureus
Experimental: as §2, §1

[6] = system: Enterobacter cloacae isolate 3678; test: MIC determination (broth microdilution in LB medium); format: cell-based
Experimental: as §2

[7] = system: Acinetobacter baumannii ATCC 747; test: MIC determination (microbroth dilution); format: cell-based; conditions: Acinetobacter baumannii, ATCC747
Experimental: (§3) Cultures were, if not stated differently, incubated at 37 °C with aeration and shaking (150 rpm) in Mueller-Hinton broth (MHB). Bacteria were freshly incubated at the next morning from an overnight pre-culture for actively growing bacteria to an OD600 nm of approx. 0.6. To ensure persistent growth form, the bacteria were grown overnight until a density at OD600 nm > 5.0 was obtained. For biofilm growth, some colonies from a Mueller-Hinton agar (MHA) plate were picked and resuspended in MHB. Cell density has been adjusted to OD600 nm = 0.8, and cells were sown into a flat-bottom 96-well plate to be incubated statically at 37 °C with aeration. Studies were mainly performed with S. aureus Mu50.
as §2

[8] = system: Pseudomonas aeruginosa PAO1; test: MIC determination (microbroth dilution); format: cell-based
Experimental: as §3, §2

[9] = system: Enterococcus faecium ATCC 35667; test: MIC determination (microbroth dilution); format: cell-based; conditions: ATCC35667
Experimental: as §3, §2

[10] = system: Staphylococcus aureus strain ATCC 25923; test: MIC determination (microbroth dilution); format: cell-based; conditions: ATCC25923
Experimental: as §3, §2

E. faecalis ATCC 29212 = test: MIC determination (microbroth dilution); format: cell-based; conditions: Enterococcus faecalis, ATCC29212
Experimental: as §3, §2

[11] = system: Bacillus subtilis 168 trp C2; test: MIC determination (microbroth dilution); format: cell-based; conditions: 168TRPC2
Experimental: as §3, §2

[12] = system: stationary phase-induced persistent cells of MRSA strain Mu50; test: Persister killing kinetics (CFU plating); format: cell-based, Staphylococcus aureus; conditions: start 10^8 CFU/mL
Experimental: For persister killing kinetics, cells were grown overnight until a density of OD600 nm > 5.0 was reached and then washed three times with PBS. Next, cell density was adjusted to 10^8 CFU/mL in 5 mL PBS. […] Analysis was performed as described above.

[13] = system: persisters of P. aeruginosa POA1; test: Antipersister activity assay (Resazurin); format: cell-based; conditions: Pseudomonas aeruginosa, 24 h, read-out: MIC against persisters
pre-formed MRSA biofilms = test: Biofilm viability by CFU plating; format: cell-based, Staphylococcus aureus; conditions: 24 h of treatment, 4× minimal biofilm inhibitory concentration, moxifloxacin 20 μM
Experimental: Additionally, biofilm viability was quantified by CFU plating. Biofilms were pregrown as described above and treated for 24 h with 4× minimal biofilm inhibitory concentrations as calculated from the Resazurin reduction assay. Biofilms were dispersed by pipetting followed by sonification in a water bath. Dilutions were plated on Mueller-Hinton agar plates and incubated overnight at 37 °C.

Structure (SMILES)	concentration inhibiting viability of cells in biofilms (maximal effect) [1]	cytotoxicity (human PBMNCs)	fold increased MIC of mutants (S. aureus)	resistance frequency (S. aureus)	MIC90 [2]	MIC90 [3]	MIC90 [4]	MIC90 [5]	MIC90 [6]	MIC90 [7]	MIC90 [8]	MIC90 [9]	MIC90 [10]	MIC90 (E. faecalis ATCC 29212)	MIC90 [11]	time until viability reduced to the detection limit ([12]; PPs at 4× MIC, NH125 10 μM, detection limit 10^2 CFU/mL)	MIC [13]	reduction in viable cell counts in biofilms (pre-formed MRSA biofilms)	decrease of viability of persistent cells after 24 h ([12]; 3-bromo-PP at 4× MIC, moxifloxacin control, 24 h)
Oc1c(Br)cc(Br)cc1Oc1ccc(Br)cc1Br [2-bromo-PP, 4,6-dibromo-2-(2′,4′-dibromophenoxy)phenol]	100 µM	low cytotoxicity	4 fold	< 10^−7	0.78 µM and 0.39 µg/mL	1.56 µM and 0.78 µg/mL	1.56 µM and 0.78 µg/mL	0.78 µM and 0.39 µg/mL	12.5 µM and 6.27 µg/mL	0.78 µM and 0.39 µg/mL	0.78 µM and 0.39 µg/mL	0.78 µM and 0.39 µg/mL	0.39 µM and 0.2 µg/mL	0.78 µM and 0.39 µg/mL	0.39 µM and 0.2 µg/mL	8 h	12.5 µM (≈ 6.27 µg/mL)	ca. 5 order of magnitudes	–
Oc1c(Br)cc(Br)c(Br)c1Oc1ccc(Br)cc1Br [3-bromo-PP, 3,4,6-tribromo-2-(2′,4′-dibromophenoxy)phenol]	12.5 µM	low cytotoxicity	32 fold	< 10^−7	6.25 µM and 3.63 µg/mL	3.12 µM and 1.81 µg/mL	3.12 µM and 1.81 µg/mL	3.12 µM and 1.81 µg/mL	12.5 µM and 7.26 µg/mL	3.12 µM and 1.81 µg/mL	1.56 µM and 0.9 µg/mL	0.39 µM and 0.23 µg/mL	0.78 µM and 0.45 µg/mL	0.78 µM and 0.45 µg/mL	0.39 µM and 0.23 µg/mL	–	50 µM (≈ 29 µg/mL)	ca. 5 order of magnitudes	2 logs
